From ChEMBL document CHEMBL1201862, “PubChem BioAssay data set” (2004) come the findings set out here.

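Where inhibition never reached the appropriate level, the endpoint shown equals the highest concentration tested. Otherwise, values were interpolated linearly from a five-concentration, 48-hour dose response in 96-well plates. GI50 marks 50% less growth.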 The source made the active and inactive calls. Cut-off read from the data, not from the text of the source: active = GI50 up to about 1.1 µM and inactive = higher. Some results are limits rather than exact numbers.

In general, GI50 refers to the concentration that inhibits growth by half.

Among the test systems are COLO 205; SF-268; SNB-75; UACC-62; SNB-19; OVCAR-5; SW-620; KM12; K562; OVCAR-4; NCI-H460; HCT-15; U-251; SK-MEL-2; HCC 2998; A498; SK-OV-3; HL-60; MOLT-4.
Assay in all cases: DTP human tumour cell line panel, 48 h

Take `CCOC(=O)C(=O)NC12CC3CC(CC(C3)C1)C2`: the GI50 with COLO 205, in the experiment on SF-268, in the experiment on SNB-75, in the experiment with UACC-62, with SNB-19 and with OVCAR-5 was > 100 µM (inactive) throughout. For the same molecule, the GI50 was > 100 µM (inactive) with SW-620; > 100 µM (inactive) in the experiment on KM12; > 100 µM (inactive) in the experiment on K562; > 100 µM (inactive) in the experiment with OVCAR-4; > 100 µM (inactive) in the experiment with NCI-H460; greater than 100 µM in the experiment with HCT-15. Also, the GI50 with U-251, with SK-MEL-2, in the experiment with HCC 2998, in the experiment on A498, with SK-OV-3 and with HL-60 was > 100 µM (inactive) throughout.
Take `CC[C@H]1CN2CCc3cc(OC)c(OC)cc3[C@@H]2C[C@@H]1C[C@H]1NCCc2cc(O)c(OC)cc21`: the GI50 is 0.0502 µM (active) in the experiment on MOLT-4; 0.0557 µM (active) in the experiment on SF-268; 0.0478 µM (active) in the experiment with UACC-62; 0.025 µM (active) with SNB-19; 0.25 µM (active) in the experiment on OVCAR-5; 0.025 µM (active) in the experiment on SW-620. Besides, the GI50 in the experiment with KM12 was 0.0296 µM (active); in the experiment on K562 it was 0.025 µM (active); with OVCAR-4, 0.025 µM (active); in the experiment with NCI-H460, 0.0282 µM (active); in the experiment with HCT-15, 0.0491 µM; in the experiment on U-251, 0.0333 µM (active). Besides, the GI50 with SK-MEL-2 is 0.0319 µM (active); in the experiment with HCC 2998, 0.0261 µM (active); in the experiment on SK-OV-3 it was 0.0562 µM (active); with HL-60 it was 0.025 µM (active).
Consider `O=C(CC/C=C(/CS(=O)(=O)c1ccccc1)S(=O)(=O)c1ccccc1)c1ccccc1`, for which the GI50 in the experiment on MOLT-4 is > 100 µM (inactive); with SNB-75 it was 25.6 µM (inactive); with UACC-62, 22.2 µM (inactive); in the experiment with SNB-19, > 100 µM (inactive); in the experiment on OVCAR-5 it was > 100 µM (inactive); with SW-620 it was > 100 µM (inactive). Further, the GI50 in the experiment on KM12 was > 100 µM (inactive); with K562, > 100 µM (inactive); with OVCAR-4 it was > 100 µM (inactive); with NCI-H460, > 100 µM (inactive); in the experiment with HCT-15, greater than 100 µM; in the experiment on U-251, 72.3 µM (inactive). Besides, the GI50 is 50.8 µM (inactive) in the experiment on SK-MEL-2; > 100 µM (inactive) with HCC 2998; > 100 µM (inactive) in the experiment on A498; 44 µM (inactive) in the experiment with SK-OV-3; 42.9 µM (inactive) in the experiment on HL-60.
Regarding `C[Si](C)(C)/C(I)=C/CO`, the GI50 with COLO 205 was 16.3 µM (inactive); with MOLT-4, 17 µM (inactive); with SF-268, 27.1 µM (inactive); in the experiment with SNB-75, 53.6 µM (inactive); in the experiment on UACC-62, 20.4 µM (inactive); in the experiment on SNB-19 it was 29.6 µM (inactive). Further, the GI50 in the experiment with OVCAR-5 is 30.5 µM (inactive); in the experiment on SW-620 it was 23.3 µM (inactive); in the experiment with KM12, 23 µM (inactive); in the experiment on K562 it was 19.4 µM (inactive); in the experiment on OVCAR-4 it was 38.3 µM (inactive); with NCI-H460 it was 19.7 µM (inactive). Moreover, the GI50 is 24.8 µM in the experiment on HCT-15; 18.3 µM (inactive) with U-251; 19.7 µM (inactive) with SK-MEL-2; 38.6 µM (inactive) in the experiment on A498; 32.5 µM (inactive) with SK-OV-3.
Regarding `O=C1C2C3C=C4c5ccccc5N(c5ccccc5)C4(C2C(=O)N1Cc1ccccc1)C1C(=O)N(Cc2ccccc2)C(=O)C31` (centres undefined), the GI50 in the experiment with COLO 205 was > 100 µM (inactive); in the experiment with MOLT-4, > 100 µM (inactive); with SF-268, > 100 µM (inactive); with SNB-75 it was 16.1 µM (inactive); with SNB-19, > 100 µM (inactive); with OVCAR-5, > 100 µM (inactive). Moreover, the GI50 is > 100 µM (inactive) in the experiment on SW-620; > 100 µM (inactive) in the experiment with KM12; > 100 µM (inactive) in the experiment on K562; > 100 µM (inactive) in the experiment with NCI-H460; greater than 100 µM in the experiment with HCT-15; > 100 µM (inactive) in the experiment with U-251. Besides, the GI50 in the experiment on SK-MEL-2, in the experiment on HCC 2998, in the experiment with A498 and with HL-60 was > 100 µM (inactive) throughout.
As for `C[n+]1[se]c2ccccc2c1Cl`, the GI50 in the experiment with COLO 205 was > 43.9 µM (inactive); with MOLT-4 it was 13.5 µM (inactive); with SF-268 it was 20.9 µM (inactive); in the experiment on SNB-75, 17.6 µM (inactive); in the experiment on UACC-62, 17.7 µM (inactive); with SNB-19 it was > 67.8 µM (inactive). The GI50 with OVCAR-5 is > 52.1 µM (inactive); with SW-620, 20 µM (inactive); in the experiment with KM12, > 40.2 µM (inactive); in the experiment on K562, 36.4 µM (inactive); with OVCAR-4 it was 31 µM (inactive); with NCI-H460 it was 35.3 µM (inactive). The GI50 in the experiment with HCT-15 is 24.7 µM; in the experiment with U-251, 30.9 µM (inactive); in the experiment on SK-MEL-2 it was 11.7 µM (inactive); in the experiment on HCC 2998, > 47.8 µM (inactive); in the experiment on A498, > 59.4 µM (inactive); in the experiment with SK-OV-3 it was > 89.3 µM (inactive). In addition, the GI50 with HL-60 is 7.89 µM (inactive).
Consider `O=S1(=O)CC#CC[C@@H](CO)[C@@H](CO)CC#CC1`, for which the GI50 is 42.5 µM (inactive) in the experiment with MOLT-4; 82 µM (inactive) in the experiment with SNB-75; > 100 µM (inactive) in the experiment with UACC-62; > 100 µM (inactive) in the experiment on OVCAR-5; 36.4 µM (inactive) with SW-620; > 100 µM (inactive) in the experiment with KM12. Also, the GI50 is 59 µM (inactive) in the experiment with K562; > 100 µM (inactive) in the experiment on OVCAR-4; > 100 µM (inactive) with NCI-H460; greater than 100 µM with HCT-15; > 100 µM (inactive) in the experiment on U-251; > 100 µM (inactive) in the experiment on SK-MEL-2. Further, the GI50 is > 100 µM (inactive) with HCC 2998, > 100 µM (inactive) in the experiment on SK-OV-3 and 53.7 µM (inactive) in the experiment with HL-60.
In the case of `C=C(CS(=O)(=O)c1ccccc1)[P+](c1ccccc1)(c1ccccc1)c1ccccc1`, the GI50 was 16.6 µM (inactive) with MOLT-4; 2.72 µM (inactive) in the experiment on SF-268; 12.6 µM (inactive) in the experiment on SNB-75; 22.9 µM (inactive) in the experiment on UACC-62; 28.4 µM (inactive) in the experiment with SNB-19; 33.9 µM (inactive) with OVCAR-5. Also, the GI50 with SW-620 is 18.2 µM (inactive); with KM12, 14.7 µM (inactive); in the experiment with K562, 4.65 µM (inactive); in the experiment with OVCAR-4, 37.9 µM (inactive); in the experiment on NCI-H460, 22.1 µM (inactive); with HCT-15, 23.6 µM. Besides, the GI50 with U-251 was > 10 µM (inactive); in the experiment on SK-MEL-2, > 100 µM (inactive); in the experiment on HCC 2998 it was 20.8 µM (inactive); in the experiment with A498 it was 35.7 µM (inactive); with SK-OV-3 it was 27.3 µM (inactive); with HL-60 it was 9.16 µM (inactive).
In the case of `Cc1cc(O)c2c(c1O)C(=O)C13C(=C(O)C4C(O)C1C1C(O)C3C(O)=C3C(=O)c5c(O)cc(C)c(O)c5C(=O)C341)C2=O` (centres undefined), the GI50 in the experiment on COLO 205 is 0.0276 µM (active); in the experiment with MOLT-4, 0.0541 µM (active); in the experiment on SF-268, 0.0542 µM (active); in the experiment with SNB-75, 0.0499 µM (active); in the experiment with UACC-62, 0.0489 µM (active); in the experiment with SNB-19, 0.668 µM (active). For the same molecule, the GI50 is 0.778 µM (active) in the experiment on OVCAR-5; 0.0507 µM (active) in the experiment with SW-620; 0.0726 µM (active) with KM12; 0.0322 µM (active) in the experiment with K562; 0.385 µM (active) in the experiment on OVCAR-4; 0.0348 µM (active) in the experiment on NCI-H460. The GI50 in the experiment with HCT-15 is 0.0367 µM; in the experiment with U-251, 0.0214 µM (active); with SK-MEL-2, 0.172 µM (active); with HCC 2998 it was 0.032 µM (active); with A498 it was 0.0362 µM (active); in the experiment with SK-OV-3, 0.0378 µM (active).
